In brackets after ≈: the same amount, converted by molar mass.
Key:
[1] = test system: HSV-1; assay: HSV antiviral (ELISA) assay in Vero cells; type: cell-based, herpes simplex virus type 1; settings: Human alphaherpesvirus 1; HSV-1 in Vero cells; read-out: IC50 (ug/ml) HSV
Experimental: HSV antiviral (ELISA) assay
Vero cells (ATCC #CCL-81) are plated on 96-well tissue culture plates at 3.5x10^4 cells per 100µl tissue culture DMEM (Dulbecco's modified Eagle media) supplemented with 2% fetal bovine serum (FBS) in each well. After overnight incubation @ 37°C (in 5% CO2) and 30 minutes prior to infection with HSV-1 (multiplicity of infection equal to 0.006), cells are either untreated, or treated with test compound (multiple concentrations) or reference standard drug control. After approximately 24 hours post-infection incubation @ 37°C (in 5% CO2), cells are fixed for ELISA assay. The primary antibody is murine anti-HSV glycoprotein D monoclonal primary antibody and the secondary antibody is goat anti-mouse IgG linked to β-galactosidase. Thus the extent of viral replication is determined by assessing β-galactosidase activity by quantifying the generation of the 4-methyl umbelliferone fluorescent cleavage product after addition of the methyl umbelliferyl-β-D-galactoside (Sigma #M1633) substrate on a microfluorimeter (365nm for excitation and 450nm for emission). Antiviral activity (IC50) of the test compound is determined by comparing the flourescence obtained in absence of compound to that obtained in the presence of compound.

[2] = test system: HCMV recombinant mutant virus; assay: microbe, parasite or virus in culture; type: cell-based, human cytomegalovirus; settings: Human betaherpesvirus 5, read-out: IC50 (ug/ml) HCMV
Description: Microtiter plate assay. Ninety-six well plate cultures of human foreskin fibroblasts are infected in the presence of inhibitor compound with a HCMV recombinant mutant virus whose genome contains the prokaryotic beta-glucuronidase gene (Jefferson, R. A., S. M. Burgess, and D. Hirsh. 1986. Beta-glucuronidase from Escherichia coli as a gene fusion marker. Proc. Natl. Acad. Sci. USA 83:8447-8451) whose expression is controlled by a viral promoter. An example of such a virus is RV145 (Jones, T. R., V. P. Muzithras, and Y. Gluzman. 1991. Replacement mutagenesis of the human cytomegalovirus genome: US10 and US11 gene products are nonessential. J. Virol. 65:5860-5872). Since it is under the control of a viral promoter, beta-glucuronidase expression is an indirect indicator of growth and replication of HCMV in this assay. At 96 hours post-infection, the infected cell lysates are prepared (using 50mM sodium phosphate [pH7.0] containing 0.1 % Triton X-100 and 0.1% sarkosyl) and assayed for beta-glucuronidase activity using a substrate for the enzyme which when cleaved yields either a product which can be measured colorimetrically in a spectrophotometer or fluorescently in a microfluorimeter. Examples of such substrates are p-nitrophenyl-beta-D-glucuronide and methylumbelliferylglucuronide, respectively. The presence of an antiviral compound is indicated by the reduced expression of the HCMV genome resident beta-glucuronidase gene, compared to the absence of inhibitor. […] Data from this assay generated using varying amounts of inhibitor compound is also used to estimate the IC50 of an inhibitor compound.

[3] = test system: VZV strain Ellen; assay: VZV antiviral (ELISA) assay in human foreskin fibroblast cells; type: cell-based, varicella-zoster virus; settings: for inhibition at 10 µg/mL: Human alphaherpesvirus 3, Fibroblast, read-out: % inhibition 10 ug/ml VZV; for IC50: Human alphaherpesvirus 3, VZV strain Ellen in HFF cells, read-out: IC50 (ug/ml) VZV
Experimental: VZV antiviral (ELISA) assay
For the generation of stock VZV to be used in the assay, VZV strain Ellen (ATCC #VR-1367) is used to infect human foreskin fibroblast (HFF) cells at low multiplicity (less than 0.1) and incubated overnight at 37°C in 5% CO2. After the overnight incubation, the mixture of uninfected and VZV-infected HFF infected cells are then harvested and added to each well of 96-well plates (3.5x10^4 cells in 100 µl DMEM supplemented with 2% FBS) which contain test compound or the reference standard drug control (in 100µl DMEM supplemented with 2% FBS per well). These cells are incubated for three days at 37°C in 5% CO2, then fixed for ELISA assay. The primary antibody is murine anti-VZV glycoprotein II monoclonal antibody (Applied Biosystems, Inc. #13-145-100) and the secondary antibody is goat anti-mouse IgG linked to β-galactosidase. Thus the extent of viral replication is determined by assessing β-galactosidase activity by quantifying the generation of the 4-methyl umbelliferone fluorescent cleavage product after addition of the methyl umbelliferyl-β-D-galactoside (Sigma #M1633) substrate on a microfluorimeter (365nm for excitation and 450nm for emission). Antiviral activity (IC50) of the test compound is determined by comparing the flourescence obtained in absence of compound to that obtained in the presence of compound.

Structure (SMILES) | IC50 [1] [µg/mL] | IC50 [2] [µg/mL] | inhibition at 10 µg/mL [3] [%] | IC50 [3] [µg/mL]
COc1cc(OC)c(NC(=S)Nc2ccc(NC(=O)c3ccccc3F)c3ccccc23)cc1Cl [Example 325, N-{4-[3-(5-Chloro-2,4-dimethoxy-phenyl)-thioureido]-naphthalen-1-yl}-2-fluoro-benzamide] | 1 (≈ 1.96 µM) | > 10 | 33 | > 10
CC(NC(=S)Nc1ccc(NC(=O)c2ccccc2F)c(OCc2ccccc2)c1)c1ccc(F)cc1 (stereo not shown) [Example 1051, N-(2-Benzyloxy-4-{3-[1-(4-fluoro-phenyl)-ethyl]-thioureido}-phenyl)-2-fluoro-benzamide] | > 10 | > 10 | – | 0.7 (≈ 1.35 µM)
CC(NC(=S)Nc1ccc(NC(=O)c2cc3ccccc3o2)c(C#N)c1)c1ccc(F)cc1 (stereo not shown) [Example 1070, Benzofuran-2-carboxylic acid (2-cyano-4-{3-[1-(4-fluoro-phenyl)-ethyl]-thioureido}-phenyl)-amide] | 4.1 (≈ 8.94 µM) | 2 (≈ 4.36 µM) | – | 0.2 (≈ 0.436 µM)
COc1cc(OC)c(NC(=S)Nc2ccc(NC(=O)c3ccccc3F)c(C(=O)Nc3ccccc3)c2)cc1Cl [Example 301, 5-[[[(5-Chloro-2,4-dimethoxyphenyl)amino]thioxomethyl]amino]-2-[(2-fluorobenzoyl)amino]-N-phenyl-benzamide] | 10 (≈ 17.3 µM) | > 10 | 10 | > 10
COc1cc(NC(=S)NC(C)c2ccc(F)cc2)c(OC)cc1NC(=O)c1ccccc1F (stereo not shown) [Example 1025, 2-Fluoro-N-(4-{3-[1-(4-fluoro-phenyl)-ethyl]-thioureido}-2,5-dimethoxy-phenyl)-benzamide] | > 10 | > 10 | – | > 10
CC(NC(=S)Nc1ccc(NC(=O)c2cc3ccccc3cn2)c(C(F)(F)F)c1)c1ccc(F)cc1 (stereo not shown) [Example 1068, Isoquinoline-3-carboxylic acid (4-{3-[1-(4-fluoro-phenyl)-ethyl]-thioureido}-2-trifluoromethyl-phenyl)-amide] | > 10 | > 10 | – | 0.04 (≈ 0.078 µM)
Cc1c(C)c(NC(=S)NC(C)c2ccc(F)cc2)c(C)c(C)c1NC(=O)c1ccccc1F (stereo not shown) [Example 1023, 2-Fluoro-N-(4-{3-[1-(4-fluoro-phenyl)-ethyl]-thioureido}-2,3,5,6-tetramethyl-phenyl)-benzamide] | > 10 | 9 (≈ 19.2 µM) | – | 10 (≈ 21.4 µM)
CC(NC(=S)Nc1ccc(NC(=O)c2ccccc2F)c(N(C)C)c1)c1ccc(F)cc1 (stereo not shown) [Example 1049, N-(2-Dimethylamino-4-{3-[1-(4-fluoro-phenyl)-ethyl]-thioureido}-phenyl)-2-fluoro-benzamide] | 8 (≈ 17.6 µM) | 4.5 (≈ 9.9 µM) | – | 0.07 (≈ 0.154 µM)
COc1cc(NC(=S)NC(C)c2ccc(F)cc2)ccc1NC(=O)c1ccccc1F (stereo not shown) [Example 1064, 2-Fluoro-N-(4-{3-[1-(4-fluoro-phenyl)-ethyl]-thioureido}-2-methoxy-phenyl)-benzamide] | 3.9 (≈ 8.83 µM) | 4.5 (≈ 10.2 µM) | – | 0.04 (≈ 0.0906 µM)
COc1cc(C)c(Cl)cc1NC(=S)Nc1ccc(NC(=O)c2ccccc2F)c(C)c1 [Example 394, N-{4-[3-(5-Chloro-2-methoxy-4-methyl-phenyl)-thioureido]-2-methyl-phenyl}-2-fluoro-benzamide] | 0.2 (≈ 0.437 µM) | > 10 | 36 | > 10
COc1cc(OC)c(NC(=S)Nc2ccc(NC(=O)c3ccccc3F)cc2C(F)(F)F)cc1Cl [Example 359, N-{4-[3-(5-Chloro-2,4-dimethoxy-phenyl)-thioureido]-3-trifluoromethyl-phenyl}-2-fluoro-benzamide] | 0.6 (≈ 1.14 µM) | > 10 | 59 | > 10
COc1cc(OC)c(NC(=S)Nc2ccc(NC(=O)c3c(F)cccc3F)cc2C)cc1Cl [Example 347, N-{4-[3-(5-Chloro-2,4-dimethoxy-phenyl)-thioureido]-3-methyl-phenyl}-2,6-difluoro-benzamide] | 0.06 (≈ 0.122 µM) | 10 (≈ 20.3 µM) | 34 | > 10
CC(NC(=S)Nc1ccc(NC(=O)c2ccccc2F)c(C#N)c1)c1cc2ccccc2o1 (stereo not shown) [Example 1043, N-{4-[3-(1-Benzofuran-2-yl-ethyl)-thioureido]-2-cyano-phenyl)-2-fluoro-benzamide] | > 10 | > 10 | – | 0.099 (≈ 0.216 µM)
COc1cc(OC)c(NC(=S)Nc2ccc(NC(=O)c3ccccc3F)cc2C)cc1Cl [Example 295, N-{4-[3-(5-Chloro-2,4-dimethoxy-phenyl)-thioureido]-3-methyl-phenyl}-2-fluoro-benzamide] | 0.15 (≈ 0.316 µM) | > 10 | 20 | > 10
C[C@H](NC(=S)Nc1ccc(NC(=O)c2cc3ccccc3cn2)c(C(F)(F)F)c1)c1ccc(Br)cc1 [Example 1103, Isoquinline-3-carboxylic acid (4-{3-[(1S)-1-(4-bromo-phenyl)-ethyl]-thioureido}-2-trifluoromethyl-phenyl)-amide] | – | 5 (≈ 8.72 µM) | – | 0.12 (≈ 0.209 µM)
C[C@@H](NC(=S)Nc1ccc(NC(=O)c2ccccc2F)c(C#N)c1)c1ccc(Br)cc1 [Example 1105, N-(4-{3-[(1R)-1-(4-Bromo-phenyl)-ethyl]-thioureido}-2-cyano-phenyl)-2-fluoro-benzamide] | – | 1.1 (≈ 2.21 µM) | – | > 7.5
C[C@H](NC(=S)Nc1ccc(NC(=O)c2ccccc2F)c(C#N)c1)c1ccc(F)cc1 [Example 1108, N-{4-[({[(1S)-1-(4-fluorophenyl)ethyl]amino}carbothioyl)amino]-2-cyanophenyl)-2-fluorobenzamide] | – | > 10 | – | 0.03 (≈ 0.0687 µM)
C[C@H](NC(=O)Nc1ccc(NC(=O)c2ccccc2F)c(C#N)c1)c1ccc(F)cc1 [Example 1106, N-{2-cyano-4-[({[(1S)-1-(4-fluorophenyl)ethyl]amino}carbonyl)amino]phenyl}-2-fluorobenzamide] | – | > 10 | – | 0.014 (≈ 0.0333 µM)
C[C@H](NC(=S)Nc1ccc(NC(=O)c2ccccc2F)c(C#N)c1)c1ccc(Cl)cc1 [Example 1109, N-{4-[({[(1S)-1-(4-chlorophenyl)ethyl]amino}carbothioyl)amino]-2-cyanophenyl}-2-fluorobenzamide] | – | > 10 | – | 0.07 (≈ 0.155 µM)
Cc1cc(NC(=O)c2ccccc2F)ccc1NC(=O)N[C@H](C)c1ccc(F)cc1 [Example 1107, 2-fluoro-N-{4-[({[(1R)-1-(4-fluorophenyl)ethyl]amino}carbonyl)amino]-3-methylphenyl}benzamide] | – | > 10 | – | 0.04 (≈ 0.0977 µM)
C[C@H](NC(=S)Nc1ccc(NC(=O)c2ccccc2F)c(C#N)c1)c1ccc(Br)cc1 [Example 1104, N-(4-{3-[(1S)-1-(4-Bromo-phenyl)-ethyl]-thioureido}-2-cyano-phenyl)-2-fluoro-benzamide] | – | > 10 | – | 0.09 (≈ 0.181 µM)
CC(NC(=S)Nc1ccc(NC(=O)c2ccccc2F)cc1C(F)(F)F)c1ccc(F)cc1 (stereo not shown) [Example 1102, 2-Fluoro-N-(4-{3-[1-(4-fluoro-phenyl)-ethyl]-thioureido}-3-trifluoromethyl-phenyl)-benzamide] | – | 5 (≈ 10.4 µM) | – | > 7.5
